This is an account of results in US6423689B1, “Peptidyl calcium channel blockers” (Warner-Lambert Company, priority 1997, dated 2002).

T1 sequence (Q00975 whole entry): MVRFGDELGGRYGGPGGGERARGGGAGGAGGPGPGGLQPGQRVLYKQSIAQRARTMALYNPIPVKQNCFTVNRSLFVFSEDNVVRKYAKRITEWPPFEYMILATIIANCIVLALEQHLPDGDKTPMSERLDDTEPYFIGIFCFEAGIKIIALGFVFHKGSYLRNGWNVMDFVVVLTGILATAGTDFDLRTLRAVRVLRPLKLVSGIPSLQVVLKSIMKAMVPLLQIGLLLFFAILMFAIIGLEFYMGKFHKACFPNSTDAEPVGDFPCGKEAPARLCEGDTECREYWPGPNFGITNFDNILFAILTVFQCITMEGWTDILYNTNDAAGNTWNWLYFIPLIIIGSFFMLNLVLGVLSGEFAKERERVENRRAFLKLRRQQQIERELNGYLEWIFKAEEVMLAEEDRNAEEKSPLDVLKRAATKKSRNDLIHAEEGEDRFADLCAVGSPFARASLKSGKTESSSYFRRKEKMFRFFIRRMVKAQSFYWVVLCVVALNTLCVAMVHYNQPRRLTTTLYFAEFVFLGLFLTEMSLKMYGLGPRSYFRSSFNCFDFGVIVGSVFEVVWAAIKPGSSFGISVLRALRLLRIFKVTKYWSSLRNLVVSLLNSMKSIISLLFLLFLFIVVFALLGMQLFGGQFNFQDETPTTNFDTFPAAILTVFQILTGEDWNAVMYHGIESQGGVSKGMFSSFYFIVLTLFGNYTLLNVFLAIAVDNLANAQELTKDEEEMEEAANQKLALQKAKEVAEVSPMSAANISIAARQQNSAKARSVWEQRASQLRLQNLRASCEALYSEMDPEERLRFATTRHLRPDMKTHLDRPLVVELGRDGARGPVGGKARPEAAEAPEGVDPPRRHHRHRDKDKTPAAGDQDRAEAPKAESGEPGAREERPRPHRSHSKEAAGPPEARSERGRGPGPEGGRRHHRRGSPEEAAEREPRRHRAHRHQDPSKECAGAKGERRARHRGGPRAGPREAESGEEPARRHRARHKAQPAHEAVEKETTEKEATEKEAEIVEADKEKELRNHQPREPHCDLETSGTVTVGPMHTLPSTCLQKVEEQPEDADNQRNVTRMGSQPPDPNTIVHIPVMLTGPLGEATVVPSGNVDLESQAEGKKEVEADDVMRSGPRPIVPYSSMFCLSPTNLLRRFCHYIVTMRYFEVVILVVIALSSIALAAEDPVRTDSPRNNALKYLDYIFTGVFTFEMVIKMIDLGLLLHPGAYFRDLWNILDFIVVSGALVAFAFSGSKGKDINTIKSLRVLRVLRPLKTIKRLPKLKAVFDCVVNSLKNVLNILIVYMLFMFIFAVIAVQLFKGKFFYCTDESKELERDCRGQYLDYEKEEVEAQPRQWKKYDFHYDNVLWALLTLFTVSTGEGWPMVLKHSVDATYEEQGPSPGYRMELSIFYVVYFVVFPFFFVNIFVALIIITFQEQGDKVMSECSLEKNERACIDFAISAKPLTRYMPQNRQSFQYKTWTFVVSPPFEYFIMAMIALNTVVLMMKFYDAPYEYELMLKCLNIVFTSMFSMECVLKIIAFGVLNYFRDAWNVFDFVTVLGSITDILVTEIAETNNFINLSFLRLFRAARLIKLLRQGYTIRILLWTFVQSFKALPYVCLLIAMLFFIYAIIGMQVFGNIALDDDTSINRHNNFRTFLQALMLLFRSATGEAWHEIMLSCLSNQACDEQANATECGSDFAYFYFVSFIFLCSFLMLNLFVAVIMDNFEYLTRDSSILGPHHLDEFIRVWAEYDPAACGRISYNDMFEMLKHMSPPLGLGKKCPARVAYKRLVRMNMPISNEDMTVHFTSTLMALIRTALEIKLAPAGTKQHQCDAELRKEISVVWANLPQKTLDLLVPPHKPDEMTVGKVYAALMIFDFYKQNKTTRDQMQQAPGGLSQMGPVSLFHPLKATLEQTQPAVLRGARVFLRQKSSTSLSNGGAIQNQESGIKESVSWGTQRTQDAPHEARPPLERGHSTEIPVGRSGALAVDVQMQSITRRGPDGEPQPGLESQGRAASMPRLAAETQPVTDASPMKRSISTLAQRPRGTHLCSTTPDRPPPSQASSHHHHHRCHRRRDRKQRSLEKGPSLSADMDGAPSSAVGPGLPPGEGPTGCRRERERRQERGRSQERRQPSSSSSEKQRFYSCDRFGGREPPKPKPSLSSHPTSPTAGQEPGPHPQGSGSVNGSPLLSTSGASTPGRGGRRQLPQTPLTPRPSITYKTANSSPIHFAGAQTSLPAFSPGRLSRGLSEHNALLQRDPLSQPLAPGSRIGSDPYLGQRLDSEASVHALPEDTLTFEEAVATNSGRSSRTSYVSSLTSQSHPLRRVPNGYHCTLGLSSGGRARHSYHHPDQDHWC
T1 sequence (P54289 25-956 partner limits assumed): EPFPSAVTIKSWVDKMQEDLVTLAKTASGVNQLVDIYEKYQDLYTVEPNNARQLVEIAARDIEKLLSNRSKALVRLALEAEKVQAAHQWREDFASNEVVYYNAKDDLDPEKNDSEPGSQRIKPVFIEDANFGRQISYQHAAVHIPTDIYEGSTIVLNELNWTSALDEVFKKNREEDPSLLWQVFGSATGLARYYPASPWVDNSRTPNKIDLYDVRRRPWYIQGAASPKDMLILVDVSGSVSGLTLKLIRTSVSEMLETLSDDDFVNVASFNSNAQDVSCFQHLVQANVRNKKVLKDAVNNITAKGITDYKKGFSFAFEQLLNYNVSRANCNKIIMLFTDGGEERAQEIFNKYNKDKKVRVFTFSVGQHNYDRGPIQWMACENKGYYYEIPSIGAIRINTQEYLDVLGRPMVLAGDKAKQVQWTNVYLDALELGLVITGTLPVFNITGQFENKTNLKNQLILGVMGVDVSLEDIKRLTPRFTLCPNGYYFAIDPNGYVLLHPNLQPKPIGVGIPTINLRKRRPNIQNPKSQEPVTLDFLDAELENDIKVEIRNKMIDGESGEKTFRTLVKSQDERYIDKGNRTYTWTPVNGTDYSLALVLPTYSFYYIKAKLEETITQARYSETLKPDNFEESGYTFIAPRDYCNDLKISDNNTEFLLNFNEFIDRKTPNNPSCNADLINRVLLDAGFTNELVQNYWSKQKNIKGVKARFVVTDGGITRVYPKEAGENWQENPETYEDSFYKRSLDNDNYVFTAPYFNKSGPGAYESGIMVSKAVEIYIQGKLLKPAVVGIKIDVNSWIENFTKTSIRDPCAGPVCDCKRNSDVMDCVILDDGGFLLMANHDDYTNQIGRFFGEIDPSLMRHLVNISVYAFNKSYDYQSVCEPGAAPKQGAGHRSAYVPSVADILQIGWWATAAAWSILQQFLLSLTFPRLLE
T1 sequence (P54289 957-1103 partner limits assumed): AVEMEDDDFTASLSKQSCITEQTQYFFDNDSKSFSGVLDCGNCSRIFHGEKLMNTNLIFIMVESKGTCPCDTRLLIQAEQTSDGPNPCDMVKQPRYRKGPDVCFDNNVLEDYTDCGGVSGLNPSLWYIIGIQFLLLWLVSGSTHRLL
T1 sequence (P54284 whole entry partner): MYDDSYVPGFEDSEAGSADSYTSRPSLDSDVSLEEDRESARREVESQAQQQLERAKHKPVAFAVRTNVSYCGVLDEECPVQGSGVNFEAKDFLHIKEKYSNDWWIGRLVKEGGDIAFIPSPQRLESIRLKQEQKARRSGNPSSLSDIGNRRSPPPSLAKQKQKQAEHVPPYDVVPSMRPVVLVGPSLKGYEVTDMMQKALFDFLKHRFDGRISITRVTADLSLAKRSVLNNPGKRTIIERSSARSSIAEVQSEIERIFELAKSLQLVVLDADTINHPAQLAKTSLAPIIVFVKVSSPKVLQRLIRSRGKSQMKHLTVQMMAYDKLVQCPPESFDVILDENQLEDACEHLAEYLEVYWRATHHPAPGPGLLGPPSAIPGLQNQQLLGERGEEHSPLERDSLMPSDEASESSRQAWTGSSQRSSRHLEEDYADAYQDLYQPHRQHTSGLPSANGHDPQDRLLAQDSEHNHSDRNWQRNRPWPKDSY

The first assay has as its target T1, N-type Ca2+ channels in IMR-32 cells (Homo sapiens, UniProt Q00975).
T1 construct: host or cells: IMR-32 cells, differentiated with dibutyryl cAMP and bromodeoxyuridine
Description: Inhibition of N-type calcium flux in IMR-32 cells (Indo-1 fluorescence, nitrendipine present). The class given is cell-based. Conditions: 1 μM. An outline of the steps: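 With L-type flux blocked by 5 μM nitrendipine, N-type Ca2+ entry was read as the Indo-1 emission ratio (400/490 nm, excitation 350 nm) at 30° C after KCl depolarization.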
With `Cc1ccccc1S(=O)(=O)N[C@@H](CC(C)C)C(=O)N[C@@H](Cc1ccc(OCc2ccccc2)cc1)C(=O)OC(C)(C)C` (relative stereo) [Example 105, [S-(R*,R*)]-3-(4-Benzyloxy-phenyl)-2-[4-methyl-2-(toluene-2-sulfonylamino)-pentanoylamino]-propionic acid tert-butyl ester], the “Inhibition of Calcium Flux in IMR-32 Cells % Inhibition at 1 μM” value came to 29%.
The same measure, in the same setting: the result for `CC(C)C[C@H](NS(=O)(=O)c1cc(Cl)cc(Cl)c1)C(=O)N[C@@H](Cc1ccc(OCc2ccccc2)cc1)C(=O)OC(C)(C)C` (relative stereo) [Example 106, [S-(R*,R*)]-3-(4-Benzyloxy-phenyl)-2-[2-(3,5-dichloro-benzenesulfonylamino)-4-methylpentanoylamino]-propionic acid tert-butyl ester] reads 32%; that for `CC(C)C[C@H](NC(=O)N1CCCCCC1)C(=O)N[C@@H](Cc1ccc(N(Cc2ccccc2)Cc2ccccc2)cc1)C(=O)NC(C)(C)C` (relative stereo) [Example 133, [S-(R*,R*)]-Azepane-1-carboxylic acid {1-[2-(4-dibenzylamino-phenyl)-1-tert-butylcarbamoyl-ethylcarbamoyl]-3-methyl-butyl}-amide], 54%.

Staying with this assay, now noted: 10 μM.
For `CC(C)C[C@H](NS(=O)(=O)c1cccs1)C(=O)N[C@@H](Cc1ccc(OCc2ccccc2)cc1)C(=O)OC(C)(C)C` (relative stereo) [Example 107, [S-(R*,R*)]-3-(4-Benzyloxy-phenyl)-2-[4-methyl-2-(thiophene-2-sulfonylamino)-pentanoylamino]-propionic acid tert-butyl ester], the “Inhibition of Calcium Flux in IMR-32 Cells % Inhibition at 10 μM” value is recorded as 57%.
The same measure, in the same setting: the result for `CC(C)C[C@H](NS(=O)(=O)c1ccc2cccnc2c1)C(=O)N[C@@H](Cc1ccc(OCc2ccccc2)cc1)C(=O)OC(C)(C)C` (relative stereo) [Example 109, [S-(R*,R*)]-3-(4-Benzyloxy-phenyl)-2-[4-methyl-2-(quinoline-7-sulfonylamino)-pentanoylamino]-propionic acid tert-butyl ester] reads 56%; that for `Cc1nn(C)c(Cl)c1S(=O)(=O)N[C@@H](CC(C)C)C(=O)N[C@@H](Cc1ccc(OCc2ccccc2)cc1)C(=O)OC(C)(C)C` (relative stereo) [Example 110, [S-(R*,R*)]-3-(4-Benzyloxy-phenyl)-2-[2-(5-chloro-1,3-dimethyl-1H-pyrazole-4-sulfonylamino)-4-methyl-pentanoylamino]-propionic acid tert-butyl ester], 76%.
Still for that read-out and setting: as for `CC(C)C[C@H](NC(=O)Cc1c[nH]c2ccccc12)C(=O)C[C@H](Cc1ccc(OCc2ccccc2)cc1)C(=O)OC(C)(C)C` (relative stereo) [Example 113, [S-(R*,R*)]-2-(4-Benzyloxy-benzyl)-5-(2-1H-indol-3-yl-acetylamino)-7-methyl-4-oxo-octanoic acid tert-butyl ester], the figure is 83%; as for `CCCCCCC(=O)N[C@@H](CC(C)C)C(=O)N[C@@H](Cc1ccc(OCc2ccccc2)cc1)C(=O)OC(C)(C)C` (relative stereo) [Example 114, [S-(R*,R*)]-3-(4-Benzyloxy-phenyl)-2-(2-heptanoylamino-4-methyl-pentanoylamino)-propionic acid tert-butyl ester], 66%; as for `CC(C)C[C@H](NC(=O)C(C)C)C(=O)N[C@@H](Cc1ccc(OCc2ccccc2)cc1)C(=O)OC(C)(C)C` (relative stereo) [Example 115, [S-(R*,R*)]-3-(4-Benzyloxy-phenyl)-2-(2-isobutyrylamino-4-methyl-pentanoylamino)-propionic acid tert-butyl ester], 71%.
Still for that read-out and setting: the result for `CC(=O)N[C@@H](CC(C)C)C(=O)N[C@@H](Cc1ccc(OCc2ccccc2)cc1)C(=O)OC(C)(C)C` (relative stereo) [Example 116, [S-(R*,R*)]-2-(2-Acetylamino-4-methyl-pentanoylamino)-3-(4-benzyloxy-phenyl)-propionic acid tert-butyl ester] reads 53%.
For `CCC(=O)N[C@@H](CC(C)C)C(=O)N[C@@H](Cc1ccc(OCc2ccccc2)cc1)C(=O)OC(C)(C)C` (relative stereo) [Example 117, [S-(R*,R*)]-3-(4-Benzyloxy-phenyl)-2-(4-methyl-2-propionylamino-pentanoylamino)-propionic acid tert-butyl ester], the “Inhibition of Calcium Flux in IMR-32 Cells % Inhibition at 10 μM” value is given as 66%.
On the same count and under the same terms, as for `CCCC(=O)N[C@@H](CC(C)C)C(=O)N[C@@H](Cc1ccc(OCc2ccccc2)cc1)C(=O)OC(C)(C)C` (relative stereo) [Example 118, [S-(R*,R*)]-3-(4-Benzyloxy-phenyl)-2-(2-butyrylamino-4-methyl-pentanoylamino)-propionic acid tert-butyl ester], the figure is 80%.
Same read-out and setting: the result for `CC(C)C[C@H](NC(=O)Cc1cccnc1)C(=O)N[C@@H](Cc1ccc(OCc2ccccc2)cc1)C(=O)OC(C)(C)C` (relative stereo) [Example 119, [S-(R*,R*)]-3-(4-Benzyloxy-phenyl)-2-[4-methyl-2-(2-pyridin-3-yl-acetylamino)pentanoylamino]-propionic acid tert-butyl ester] reads 65%.
On the same count and under the same terms, the result for `CC(C)C[C@H](NC(=O)CCc1c[nH]c2ccccc12)C(=O)N[C@@H](Cc1ccc(OCc2ccccc2)cc1)C(=O)OC(C)(C)C` (relative stereo) [Example 120, [S-(R*,R*)]-3-(4-Benzyloxy-phenyl)-2-[2-(3-1H-indol-3-yl-propionylamino)-4-methyl-pentanoylamino]-propionic acid tert-butyl ester] reads 65%; that for `Cc1nn(-c2ccccc2)nc1C(=O)N[C@@H](CC(C)C)C(=O)N[C@@H](Cc1ccc(OCc2ccccc2)cc1)C(=O)OC(C)(C)C` (relative stereo) [Example 121, [S-(R*,R*)]-3-(4-Benzyloxy-phenyl)-2-{4-methyl-2-[(5-methyl-2-phenyl-2H-[1,2,3]triazole-4-carbonyl)-amino]-pentanoylamino}-propionic acid tert-butyl ester], 25%.
For `CC(C)C[C@H](NC(=O)Cc1cccs1)C(=O)N[C@@H](Cc1ccc(OCc2ccccc2)cc1)C(=O)OC(C)(C)C` (relative stereo) [Example 122, [S-(R*,R*)]-3-(4-Benzyloxy-phenyl)-2-[4-methyl-2-(2-thiophen-2-yl-acetylamino)pentanoylamino]-propionic acid tert-butyl ester], the “Inhibition of Calcium Flux in IMR-32 Cells % Inhibition at 10 μM” value was 84%.
The same measure, in the same setting: as for `CC(C)C[C@H](NC(=O)c1ccno1)C(=O)N[C@@H](Cc1ccc(OCc2ccccc2)cc1)C(=O)OC(C)(C)C` (relative stereo) [Example 123, [S-(R*,R*)]-3-(4-Benzyloxy-phenyl)-2-{2-1(isoxazole-5-carbonyl)-amino]-4-methyl-pentanoylamino}-propionic acid tert-butyl ester], the figure is 67%.
As to `CC(C)C[C@H](NC(=O)c1cccnc1)C(=O)N[C@@H](Cc1ccc(OCc2ccccc2)cc1)C(=O)OC(C)(C)C` (relative stereo) [Example 124, [S-(R*,R*)]-3-(4-Benzyloxy-phenyl)-2-{4-methyl-2-[(pyridine-3-carbonyl)-amino]pentanoylamino}-propionic acid tert-butyl ester], the “Inhibition of Calcium Flux in IMR-32 Cells % Inhibition at 10 μM” value was determined as 60%.
Still for that read-out and setting: as for `CC(C)C[C@H](NC(=O)c1cnc2ccccc2n1)C(=O)N[C@@H](Cc1ccc(OCc2ccccc2)cc1)C(=O)OC(C)(C)C` (relative stereo) [Example 126, [S-(R*,R*)]-3-(4-Benzyloxy-phenyl)-2-{4-methyl-2-[(quinoxaline-2-carbonyl)-amino]pentanoylamino}-propionic acid tert-butyl ester], the figure is 28%.
Still for that read-out and setting: the result for `CC(C)C[C@H](NC(=O)C(F)(F)C(F)(F)F)C(=O)C[C@H](Cc1ccc(OCc2ccccc2)cc1)C(=O)OC(C)(C)C` (relative stereo) [Example 127, [S-(R*,R*)]-2-(4-Benzyloxy-benzyl)-7-methyl-4-oxo-5-(2,2,3,3,3-pentafluoro-propionylamino)-octanoic acid tert-butyl ester] reads 61%; that for `CC(C)C[C@H](NC(=O)C(F)(F)F)C(=O)N[C@@H](Cc1ccc(OCc2ccccc2)cc1)C(=O)OC(C)(C)C` (relative stereo) [Example 128, [S-(R*,R*)]-3-(4-Benzyloxy-phenyl)-2-[4-methyl-2-(2,2,2-trifluoro-acetylamino)pentanoylamino]-propionic acid tert-butyl ester], 78%; that for `CC(C)C[C@H](NC(=O)C(C)(C)C)C(=O)N[C@@H](Cc1ccc(OCc2ccccc2)cc1)C(=O)OC(C)(C)C` (relative stereo) [Example 129, [S-(R*,R*)]-3-(4-Benzyloxy-phenyl)-2-[2-(2,2-dimethyl-propionylamino)-4-methyl-pentanoylamino]-propionic acid tert-butyl ester], 74%.
Same read-out and setting: as for `Cc1onc(-c2ccccc2)c1C(=O)N[C@@H](CC(C)C)C(=O)N[C@@H](Cc1ccc(OCc2ccccc2)cc1)C(=O)OC(C)(C)C` (relative stereo) [Example 131, [(S-(R*,R*)]-3-(4-Benzyloxy-phenyl)-2-{4-methyl-2-[(5-methyl-3-phenyl-isoxazole-4-carbonyl)amino]-pentanoylamino}-propionic acid tert-butyl ester], the figure is 44%; as for `CC(C)C[C@H](NC(=O)N1CCCCCC1)C(=O)N[C@@H](Cc1ccc(N(Cc2ccccc2)Cc2ccccc2)cc1)C(=O)NC(C)(C)C` (relative stereo) [Example 133, [S-(R*,R*)]-Azepane-1-carboxylic acid {1-[2-(4-dibenzylamino-phenyl)-1-tert-butylcarbamoyl-ethylcarbamoyl]-3-methyl-butyl}-amide], 72%.
